Columns and labels:
[1] = Anti-oxidation activity (rhodan-iron method) using linoleic acid, suppression of auto-oxidation; assay type: biochemical; conditions: for Absorbance, auto-oxidation of linoleic acid: specimen 0.02% (W/W)
Experimental: Linoleic acid is unsaturated fatty acid that is contained richly also in human body. The unsaturated fatty acid is characterized by being auto-oxidized when it is allowed to stand, so as to be lipid peroxide. In this experiment, linoleic acid is mixed with a sample, the mixture is allowed to stand at 40° C., and then antioxidative activities are evaluated based on increases in the amounts of lipid oxides purified from linoleic acid. […] The resulting mixture was put into a brown screw cap bottle, so that 10 ml of a reaction solution was prepared. When a specimen was a water-insoluble component, the specimen was dissolved in the above 99.5% ethanol, so that a reaction solution was prepared. When a specimen was a water-soluble component, the specimen was dissolved in the above distilled water, so that a reaction solution was prepared. In addition, in this test method, the term “specimen concentration” indicates a specimen concentration in 2 ml of 99.5% ethanol or 2 ml of distilled water. Therefore, the final concentration of each specimen in each reaction solution was one fifth of the predetermined concentration. Furthermore, regarding specimens positive for antioxidative activities, similar procedures were performed for BHA so that it is contained in appropriate amounts in reaction solutions. Positive control specimens were thus prepared. A control used herein was prepared by adding 2 ml of 99.5% ethanol and 2 ml of distilled water alone to the reaction solution. Such reaction solution stored in the dark at 40° C. was used for the main test and such reaction solution stored at 4° C. was used for a blank test. Test substances were sampled with time and then measured as described below. Tests were conducted for 2 or more weeks. 0.1 ml of 2×10^2M ferrous chloride (3.5% hydrochloric acid solution) was added to the mixture of 0.1 ml of a test substance, 9.7 ml of 75% ethanol, and 0.1 ml of 30% ammonium rhodanate aqueous solution. At precisely 3 minutes after addition, absorbance was measured at 500 nm. Absorbance was similarly measured in a blank test: Δ absorbance=[absorbance in main test]−[absorbance in blank test]. The higher the absorbance, the higher the amount of oxidized lipids. […] Furthermore, when oxidation of a sample is initiated, the absorbance increases. After the absorbance reaches a peak, the absorbance decreases as the amount of a sample to be oxidized decreases. It can be said that the sooner the absorbance reaches a peak, the weaker the anti-oxidation activity. Furthermore, anti-oxidation activities of the samples were compared in terms of oxidation ratio (%). Oxidation ratio (%) was obtained by the following formula using the oxidation (absorbance) of the control as 100%. Oxidation ratio (%)=([Δ absorbance of sample]/[Δ absorbance of control])×100 [Formula 1] It can be said that the higher the oxidation ratio (%), the lower the anti-oxidation activity.

brown guinea pigs = assay: Skin-whitening test: suppression of pigmentation after UV irradiation; assay type: in vivo; conditions: oral, dose of ascorbic acid 300 mg/kg animal weight/day, 42 days; UVB on days 0, 2, 4; observed days 7 to 42
Experimental: The effect of suppressing pigmentation after UV irradiation was examined using brown guinea pigs (SPF). The brown guinea pigs are of an animal species that undergoes pigmentation because of UV irradiation in a manner similar to humans and of a line that has been clearly maintained. Six guinea pigs were used for each group in this test. To promote pigmentation, UV (UVB) irradiation was performed from a distance of 40 cm using five SE lamps (wavelength between 250 nm and 350 nm, […] Corporation) installed in an UV irradiation apparatus (Y-798-II, Orion Electric Co., Ltd.). […] This time was designated the time for UV irradiation in this test. Each irradiation site was a 2 cm×2 cm square area located on either the left or right across the midline of the back of a guinea pig that had been sheared using electric clippers and then shaved using an electric shaver. […] Pigmentation was measured as follows. Before the initial administration (before irradiation) on the day of the initiation of administration and on days 7, 14, 21, 28, 35, and 42 after initial administration, L value (lightness) of irradiated sites were measured using a colorimeter (CR-300, Minolta Co., Ltd.) and then the ΔL value (L value on the day of observation-L value before irradiation) was found. […]

[2] = DPPH radical scavenging activity test (Test method 1.2); assay type: biochemical; conditions: Table 7
Experimental: Antioxidative activities were evaluated using an ethanol solution of diphenyl-p-picrylhydradil (DPPH), which is a stable radical. 1200 μl of ethanol and 400 μl of a specimen (adjusted to any concentration) were mixed with 1600 μl of a 250 mM acetate buffer (pH=5.5), followed by preincubation at 30° C. for 5 minutes. 800 μl of a 500 μM DPPH/ethanol solution was added to the solution and mixed therewith, and the resultant was then allowed to stand at 30° C. for 30 minutes. Absorbance was measured at 517 nm. A similar procedure was performed also for α-tocopherol and then the result was used as a positive control. The control used herein was prepared by performing a similar procedure using a solvent instead of a sample solution. Radical scavenging ratio was calculated by the following equation using the thus measured absorbances.
Scavenging ratio (%)=(1−[absorbance of sample]/[absorbance of control])×100
The above measurement for finding scavenging ratios was performed by varying stepwise the concentration of a sample in a solution. The concentration of a sample solution leading to a 50% DPPH radical scavenging ratio was found and designated the concentration required for scavenging 50% of the DPPH radicals. Thus, it can be said that the lower the numerical value, the higher the radical scavenging ability.

animal cells [3] = conditions: cited from earlier work
tyrosinase = assay: Effect of inhibiting tyrosinase (skin-whitening activity); assay type: biochemical, mushroom
Experimental: A test concerning activity of inhibiting tyrosinase, which is an enzyme that generates a melanin pigment, was conducted by the following procedure. • (1) *4 mL of an L-DOPA aqueous solution, **4 mL each of samples diluted at different concentrations, and 2 mL of a 0.2 M phosphate buffer (pH 6.8) were mixed. The mixture was heated in a thermostatic bath at 37° C. […] Changes in absorbance were automatically measured for over 20 seconds from the start to the end at intervals of 0.1 second. The rise velocity of absorbance between 4 seconds and 10 seconds after the start of measurement was calculated. *Tyrosinase solution: Solution obtained by dissolving tyrosinase (SIGMA) derived from a mushroom in a 0.2 M phosphate buffer (pH 6.8) at a concentration of 300 units/mL and then conducting filtering using a 0.2 μm filter • (3) To obtain a blank value, measurement was performed using a 0.2 M phosphate buffer instead of a sample and then tyrosinase-inhibiting activity was calculated by the equation below. Furthermore, a substance that could not be dissolved in a phosphate buffer was dissolved in dimethyl sulfoxide (DMSO), diluted with a phosphate buffer, and then measured. […]
Tyrosinase activity inhibition ratio (%)=100−((absorbance rise velocity of sample)/(absorbance rise velocity of blank))×100

animal cells [4] = conditions: animal cell test; cited from earlier work
[5] = Experiment 1, 1 day of storage at 40° C.
[6] = Experiment 1, 4 days of storage at 40° C.
[7] = Experiment 1, 5 days of storage at 40° C.
[8] = Experiment 1, 8 days of storage at 40° C.
[9] = Experiment 1, 11 days of storage at 40° C.
[10] = Experiment 1, 15 days of storage at 40° C.

## O=C1O[C@H]([C@@H](O)CO)C(O)=C1O [vitamin C, ascorbic acid]
[1]; specimen concentration 0.02% (W/W)
  Antioxidative activities for lipids (FIG. 15), in words: no antioxidative activities at all
[1]; specimen concentration 0.04% (W/W)
  Antioxidative activities for lipids (FIG. 15), in words: no antioxidative activities at all
Brown guinea pigs
  ΔL value of UV-irradiated skin (pigmentation), FIG. 21, in words: measurement values were almost the same

## (±)-α-Tocopherol
[2]
  50% radical scavenging activity concentration: 127 ppm
[1]; [5]
  Absorbance, auto-oxidation of linoleic acid: 0.0195
[1]; [6]
  Absorbance, auto-oxidation of linoleic acid: 0.0827
[1]; [7]
  Absorbance, auto-oxidation of linoleic acid: 0.1014
[1]; [8]
  Absorbance, auto-oxidation of linoleic acid: 0.1326
[1]; [9]
  Absorbance, auto-oxidation of linoleic acid: 0.1551
[1]; [10]
  Absorbance, auto-oxidation of linoleic acid: 0.1796

## O=C[C@H](O)[C@@H](O)[C@@H](O)[C@H](O)C(=O)O [galacturonic acid]
Animal cells [3]
  Effect of suppressing melanin pigment generation: has not been confirmed

## OCC1OC2O[C@@H]3[C@@H](c4ccc(O)c(O)c4)Oc4cc(O)cc(O)c4[C@@H]3OC2C(O)C1O (stereo partly shown) [Aceronidin]
[2]
  50% radical scavenging activity concentration: 80 ppm
tyrosinase
  skin-whitening effect (effect of inhibiting tyrosinase), in words: almost no skin-whitening effect (effect of inhibiting tyrosinase)
tyrosinase; L-DOPA substrate, 37° C., sample concentration not given
  Tyrosinase-inhibiting activity: 3.1%

## oligogalacturonic acid
Animal cells [4]
  Effect of suppressing melanin production: exerted an effect of suppressing melanin production

## 3(2)-t-Butyl-4-hydroxyanisole [BHA]
[1]; [5]
  Absorbance, auto-oxidation of linoleic acid: 0.0000
[1]; [6]
  Absorbance, auto-oxidation of linoleic acid: 0.0105
[1]; [7]
  Absorbance, auto-oxidation of linoleic acid: 0.0111
[1]; [8]
  Absorbance, auto-oxidation of linoleic acid: 0.0313
[1]; [9]
  Absorbance, auto-oxidation of linoleic acid: 0.0559
[1]; [10]
  Absorbance, auto-oxidation of linoleic acid: 0.0752
[1]; Experiment 2, 1 day of storage at 40° C.
  Absorbance, auto-oxidation of linoleic acid: 0.0001
[1]; Experiment 2, 4 days of storage at 40° C.
  Absorbance, auto-oxidation of linoleic acid: 0.0088
[1]; Experiment 2, 5 days of storage at 40° C.
  Absorbance, auto-oxidation of linoleic acid: 0.0121
[1]; Experiment 2, 8 days of storage at 40° C.
  Absorbance, auto-oxidation of linoleic acid: 0.0269
[1]; Experiment 2, 14 days of storage at 40° C.
  Absorbance, auto-oxidation of linoleic acid: 0.0609
[1]; Experiment 2, 18 days of storage at 40° C.
  Absorbance, auto-oxidation of linoleic acid: 0.0866

## polygalacturonic acid
Animal cells [3]
  Effect of suppressing melanin pigment generation: has not been confirmed

— US20080267894A1, “Acerola Fruit-Derived Pectin and Its Application” (NICHIREI FOODS INC., priority 2005, published 2008)
